# Experimental data from publication PMC5517430, “2,3,7,8-Tetrachlorodibenzo-p-dioxin (TCDD)-elicited effects on bile acid homeostasis: Alterations in biosynthesis, enterohepatic circulation, and microbial metabolism” (Scientific Reports, 2017).
# Experiments:
# Gpbar1 = assay: Hepatic qRT-PCR; assay type: in vivo; conditions: Mus musculus; male mice, 30 µg/kg TCDD every 4 d for 28 d; read-out: Gpbar1 hepatic expression (qRT-PCR), fold induction
# Experimental: Given the low (≤10) read counts for Gpbar1 in the RNA-Seq dataset, differential expression was confirmed by qRT-PCR[13]. Total hepatic RNA was reverse transcribed by SuperScript II (Invitrogen) using oligo dT primer according to the manufacturer’s protocol. PCR amplification was conducted on a Bio-Rad CFX Connect Real-Time PCR Detection System. Gene expression relative to vehicle control was calculated using the 2^−∆∆CT method, where each sample was normalized to the geometric mean of 3 housekeeping genes (Actb, Gapdh, and Hprt). Gene expression data are plotted relative to vehicle control. Forward and reverse primer sequences are provided in Supplementary Table S2.
# [1] = tested on: intestine of male C57BL/6 mice; assay: Sugar probe intestinal para-cellular permeability (UPLC-MS/MS of urine); assay type: in vivo, mouse; conditions: 30 µg/kg TCDD every 4 d, 26 d after initial dose
# Experimental: At 26d after the initial dose (PND54), mice were fasted for 4 h (without access to food or water) prior to oral gavage with 150 µL of a solution containing 100 mg sucrose, 12 mg lactulose, 8 mg mannitol, and 6 mg sucralose. Urine from each mouse was collected over a 5 h period, flash frozen, and combined prior to analysis. Urine was diluted in 95% acetonitrile/5% water: 100-fold for mannitol detection, 200-fold for sucrose and lactulose detection, and 500-fold for sucralose detection. Sugar probe recovery was measured using ultra high performance liquid chromatography-tandem mass spectrometry (UPLC-MS/MS), performed at the MSU RTSF Mass Spectrometry and Metabolomics Core (https://rtsf.natsci.msu.edu/mass-spectrometry/). Diluted urine samples were injected onto an Acquity UPLC BEH Amide column (1.7 µm, 2.1 × 100 mm) (Waters, Milford, MA) maintained at 50 °C on a Waters ACQUITY UPLC systems (Waters). Mobile phase A was 50 mM ammonium acetate buffer (pH = 9.6) and mobile phase B was acetonitrile. […]
# Data analysis including peak integration was performed using MAVEN[75]. […] Fractional excretion of each probe was calculated using: (probe concentration from MS X total urine volume excreted)/probe input. […]
# [2] = tested on: bsh and baiCD of gut microbiota; assay: Degenerate qRT-PCR of bacterial functional genes in fecal pellets; assay type: in vivo, mouse; conditions: male mice, 30 µg/kg TCDD
# Excerpt: The bsh Hidden Markov Model (HMM) constructed by the Ribosomal Database Project consisted of 12 vetted seed sequences from Lactobacillus, Clostridium, Roseburia, Eubacterium, Butyrivibrio, and Streptococcus species, while the baiCD HMM consisted of 10 vetted seed sequences from Clostridium and Lachnospiraceae species. Using these models, more inclusive sequence sets were created for bsh and baiCD within the ‘FunGene functional gene pipeline & repository’[80] by extracting sequences from GenBank. Setting the HMM consensus percent identity cut-off to ≥40%, nucleotide sequences of bsh and baiCD were obtained from 2633 and 129 bacterial organisms, respectively. Given the diversity of bacterial organisms found to express bsh, the 2633 sequences from FunGene were separated into 4 groups based on nucleotide similarity determined through construction of a phylogenetic tree (Group 1: 423, Group 2: 330, Group 3: 955, Group 4: 925). Bacterial classifications (genus level) of the bsh sequences in each phylogenetic group are depicted in Fig. 8A1. […] The Primer Design terminal program developed by the Ribosomal Database Project (https://github.com/rdpstaff/PrimerDesign) was used to design degenerate primer sets which target conserved regions within baiCD and each phylogenetic group of bsh (Supplementary Table S2). To estimate the overall abundance of bile acid metabolism genes within the gut microbiome, primer sets were selected to target ≥75% of the baiCD sequences and the sequences within each bsh group.
# Frozen fecal pellets were crushed into a powder and bacterial DNA was isolated using the QIAamp DNA Stool Mini Kit (Qiagen, Valencia, CA). To investigate bile acid metabolism loci, qRT-PCR was performed on a Bio-Rad CFX Connect Real-Time PCR Detection System as previously described. Gene expression relative to vehicle control was calculated using the 2^−∆∆CT method, with each fecal sample extract normalized to total bacterial DNA levels using universal primers targeting the 16 S ribosomal RNA gene[81]. Gene levels are plotted relative to vehicle control.
# serum ALP = assay: Serum alkaline phosphatase (ALP) activity, commercial kit; assay type: in vivo, mouse; conditions: male mice, 30 µg/kg TCDD every 4 d for 28 d
# Experimental: At 25d after the initial dose (PND53), fecal pellets from the previous 24 hours (h) were collected from each cage (4 mice per cage) and stored at −80 °C. At 28d after the initial exposure (PND56), mice (fasted for 6 h) were weighed and blood was collected from the submandibular vein prior to cervical dislocation. The gallbladder length, width, and depth were measured using a micro-caliper. Its volume was calculated assuming an ellipsoid shape: volume (µL) = length (mm) × width (mm) × depth (mm) × π/6[63], [64]. The distal ileum (10 cm section extending from the caecum toward the jejunum) was removed, flushed with Ca^2+/Mg^2+-free phosphate buffered saline (PBS; Sigma), and opened longitudinally. The epithelial lining was scraped into a vial containing TRIzol (Invitrogen, Carlsbad, CA), frozen in liquid nitrogen, and stored at −80 °C. Liver, gonadal white adipose tissue (gWAT), and brown adipose tissue were removed, weighed, frozen in liquid nitrogen, and stored at −80 °C. Serum alkaline phosphatase (ALP) activity was determined using a commercial kit (Pointe Scientific, Canton, MI).
# [3] = normalized to 16S rRNA gene, n = 2
compound,measurement,setting,value
"Clc1cc2c(cc1Cl)Oc1cc(Cl)c(Cl)cc1O2 [TCDD, 2,3,7,8-tetrachlorodibenzo-p-dioxin]",fold induction at 0.03 mg/kg,Gpbar1,4.3
same,Permeability of the small intestine (lactulose-to-mannitol ratio),[1],unaffected
same,bsh gene levels within phylogenetic group 4,[2],unaffected
same,"bsh gene levels within phylogenetic groups 1, 2, and 3",[2],increased
same,"Clostridium baiCD level (validated primers), fold increase",[2]; [3],2.1 fold
same,"bsh gene level, group 1 primer set 7, fold increase",[2]; [3],21.8 fold
same,"bsh gene level, group 1 primer set 8, fold increase",[2]; [3],7.3 fold
same,"bsh gene level, group 2 primer set 2, fold increase",[2]; [3],7.6 fold
same,"bsh gene level, group 2 primer set 11, fold increase",[2]; [3],7.5 fold
same,"bsh gene level, group 3 primer set 9, fold increase",[2]; [3],4.2 fold
same,Serum alkaline phosphatase (ALP) activity,serum ALP,unchanged
